Measured values published in US11179437B2, “COP9 signalosome (CSN) complex modulators and uses thereof” (Yeda Research and Development Co. Ltd., priority 2017, dated 2021).

Columns and labels:
HAP1 cells = experiment: Cell cycle analysis by flow cytometry (double thymidine block or asynchronous BrdU/propidium iodide); format: cell-based, human; details: WT cells expressing or exposed to the C-terminal CSNAP segment; release from double thymidine block (FIG. 9)
Description: UV treated cells were exposed to 5 J/m^2 dose at release, and fixed with ethanol at different time points. Cell cycle phases were assessed by flow cytometry (LSRII, BD Biosciences) following propidium iodide staining. Asynchronous cells were analyzed using propidium iodide and BrdU double staining. 10^5 cells were denatured after fixation using 2N HCl, 0.5% Triton X-100 in PBS for 30 minutes, neutralized in 0.1M Na2B4O7 pH8.5 and incubated with 5 μl of anti-BrdU-FITC (eBioscience 11-5071-41) 1% BSA, 0.5% Triton X-100 in PBS for 1 hour. Cells were washed in 1% BSA in PBS and resuspended in PBS containing 50 μg/ml propidium iodide and 50 μg/ml RNAse A, and analyzed in FACSAria Fusion flow cytometer (BD Biosciences).

cells = experiment: Cell death in cells exposed to the C-terminal peptide; format: cell-based

For “DFFNDFEDLFDDDDIQ [C-terminal peptide, peptide comprising the C-terminal region of CSNAP, responsible for assembly into the CSN complex]”, the cell cycle progression (HAP1 cells) was “capable of preventing cell cycle progression” and the “induction of cell death” value (cells) was “induce cell death”.
